Test results reported in PMC5907308, “21st Brazilian Diabetes Society Congress” (Diabetology & Metabolic Syndrome, 2018).

Columns and labels:
[1] = test system: patients submitted to liver transplantation; format: in vivo, human; details: Tacrolimus 95% CI 1.2–32.5, p = 0.029; PDN 95% CI 2.4–21, 8, p < 0.001
Source text: A total of 152 patients were included. […] Comparisons were done with Chi square tests and analysis of independent risk factors with multivariate logistic regression.

[2] = test system: pregnancies; details: general population: 3-4%; no reference given; cited from earlier work
Source text: Discussion: In transplanted pregnant women, hypertension and DM increase the risk of prematurity, restricted intrauterine growth (IUGR) and graft loss. […] In addition, there is a higher rate of small newborns for GI. […] As for immunosuppressants, there are few reports. Tacrolimus appears safe (prevalence of congenital malformations: 4-5% ...

[3] = test system: patient with mucormycosis; assay: Oral mucormycosis in a diabetic patient, case report; format: in vivo, human; details: treated for 10 days
Source text: Case presentation: person, admitted with diabetic ketoacidosis. On the 5th day of hospitalization, they complained of odynophagia, without other symptoms. On examination of the oral cavity, was found an ulcerated, infiltrative, whitish, and non-removable lesion in the soft palate (Fig. 1). No abnormalities were found in laboratory tests.

[4] = test system: patients with diabetic dyslipidemia; details: fenofibrate in combination with simvastatin, subgroup with diabetic dyslipidemia; ref [1]; cited from earlier work
[5] = test system: patient; assay: Neonatal diabetes, therapeutic test with sulfonylurea, case report; format: in vivo, human; details: oral, gradual elevation, insulin suspended; discharged on 20 mg/day
Protocol: Case presentation: A patient, presenting hypoactivity, sialorrhea and seizures 2 days ago, was admitted to a university hospital. During hospitalization they were evaluated by neurology that identified a discrete delay in neuropsychomotor development. […] Serologies for toxoplasmosis, rubella and measles negative. History of maternal varicella during gestation. […] Due to the delay in carrying out a genetic study to close the diagnosis, material was collected and sent to the genetic service and prescribed sulfonylurea (glibenclamide) as a therapeutic test. The oral medication was initiated in low doses with gradual elevation, and progressive reduction of the insulin until its suspension. […] They were discharged from the hospital using glibenclamide 20 mg/day. The patient is in outpatient follow-up at the endocrinology department of the João de Barros Barreto University Hospital. Endocrinology work team is still waiting for genetic analysis.

[6] = test system: patient with diffuse cutaneous leishmaniasis; details: side effect, literature; no reference given; cited from earlier work
[7] = test system: patient with diffuse cutaneous leishmaniasis; assay: Pentamidine-induced diabetes mellitus, case report; format: in vivo, human
Protocol: Case report: Patient two, diagnosis of diffuse cutaneous leishmaniasis in treatment since 1995 without therapeutic response after several treatments. Regular follow up with infectology, in maintenance treatment with miltefosine and in treatment with pentamidine every 30 days from January 2017, with a marked improvement of cutaneous lesions. During the follow-up, in consultation in July 2017, they complained of weight loss, polydipsia and nocturia, with serum glycemia of 901 mg/dL. Patient was referred to the hospital where they were diagnosed with a non-ketosis hyperosmolar state, with tests showing serum osmolarity of […] and glycated hemoglobin 10.31%. During hospitalization and after discharge maintained insulin use for glycemic control. Treatment of leishmaniasis with pentamidine was discontinued and will keep following-up with infectology and endocrinology.

[8] = test system: patient with metastatic lung adenocarcinoma; assay: New-onset diabetes on Nivolumab, case report (A288); format: in vivo, human
Protocol: Case report: A patient was started on Nivolumab infusions every 15 days after chemotherapy refractory progressive metastatic lung adenocarcinoma, with no prior history of diabetes. After 4 infusions, they experienced xerostomia, polyuria, polydipsia and asthenia. Upon emergency evaluation, they were started on I.V. insulin after a capillary glycemia of 600 mg/dL. They were discharged home with 10 units of NPH insulin bedtime, with a referral to the endocrinologist. […] Insulin was titrated for a total daily dose of 0.5 UI/kg. […] Nivolumab was withdrawn and no glycemic improvement nor insulin dose reductions were noted.

[9] = test system: patient with squamous cell carcinoma of the hypopharynx; assay: Autoimmune diabetes after Nivolumab therapy, case report (A402); format: in vivo, human; details: anti-GAD and anti-ICA positive
Source text: Case report: A patient with diagnosis of squamous cell carcinoma of the hypopharynx and pulmonary metastasis 2 years ago, after a failed treatment with conventional chemotherapy and radiotherapy, started a new class of cancer medication called Nivolumab—human immunoglobulin G4 monoclonal antibody. […] Investigation about the cause of the onset of diabetes founded positivity for diabetes antibodies, anti-GAD and anti-ICA, confirming autoimmune diabetes. Patient has been on intensive insulin therapy since then, with difficult glycemic control due to great glycemic variability.

[10] = test system: patients with T2D; assay: Network meta-analysis Gla-300 vs IDeg (inputs of the cost-effectiveness model); format: in vivo, human; details: estimated by network meta-analysis
Source text: Methods: This modelling analysis simulated a cohort representing patients in the EDITION 2 and 3 trials using the IMS Core Diabetes Model with a time horizon of 50 years (lifetime) for 1,000,000 patients starting at 62 years old. […] The treatment cost was $1,561 per SHE and $13.65 per NSHE (2015 $). Utilities to estimate quality-adjusted life years (QALYs) for multiple comorbidities were applied using the minimum utility approach. A disutility of -0.0118 was applied for SHE, and method of diminishing marginal disutility for NSHE.

[11] = test system: child with CGL type 2; assay: Case report: high doses of insulin in congenital generalized lipodystrophy; format: in vivo, human
Protocol: Case: Child with clinical diagnosis of CGL type 2 and diagnosis of diabetes for 1 year. Using Glargina and Lispro insulin basal/bolus (5.1 IU/kg/day) presented mean daily capillary glycemia above 600 mg/dl, associated with irritability, low weight and voracious appetite. Interned for intravenous insulin therapy and nutritional adjustment with standardized diet of 1600 kcal/day fractionated in 7 meals. Initiated continuous infusion of regular insulin (RI), 6.1UI/kg/day. […] Subsequently, it was modified to intramuscular administration, in 5 application times, without differences in glycemic averages. On the 36 th day, Degludeca insulin was introduced (9.3 IU/kg/day) associated with RI (18.2 U/kg/day), evolving within the first 24 h with improved glycemia (180 ± 42 mg/dl). […] After approximately fivefold increase in the initial insulin dose, there was improvement in glycemia, irritability, weight gain and decreased appetite.

[12] = test system: patients with DM 1 and DRIASM; assay: Case reports: IDeg in resistance to subcutaneous and intramuscular insulin (DRIASM); format: in vivo, human; details: patient 1; IDeg since December 2015
Protocol: It was suspected of diabetes mellitus with resistance to insulin administered subcutaneously or intramuscularly (DRIASM). […] After that it was decided to perform a therapeutic test with IDeg. […] They remained in use of IDeg 80 UI/d and lispro 600 UI/d. […] An insulin challenge test was performed with SC and IM NPH/Glargina/Detemir and IV regular insulin. […] They remained in use of IDeg 80 UI/d and aspart 2000 UI/d.

[13] = test system: type 2 diabetic patient; assay: Case report: liraglutide added to insulin degludec and metformin; format: in vivo, human; details: 30 days of Insulin Degludec 16U with metformin
Protocol: patient one, type 2 diabetic for 3 years, using Gliclazide 60 mg/day and Metformin 1500 mg/day. They reported asthenia and difficulty losing weight. […] To optimize patient glycemic control and weight loss, Liraglutide 1.2 mg/day was initiated. […] The insulin dose was reduced to 10 U and reassessed in 30 days for possible discontinuation of insulin therapy. GLP- 1 receptor agonists stimulate insulin secretion in a […] manner, inhibit glucagon secretion and hepatic glucose output, delay gastric emptying, induce satiety, reduce appetite, and cause weight loss. […] It is a therapeutic option with action well established in weight loss, metabolic and glycemic improvement in the DM2 patient. However, its action on HbA1C reduction was independent of weight loss, evidencing intensive glycemic control with HbA1C between 6.5 and 7.0% even with discrete or even absent weight loss.

[14] = test system: elderly patients with T2DM; assay: Pilot randomized trial Ideg vs Iglar-U100 with CGM; format: in vivo, human; details: for 24-h mean glucose, median (minimum–maximum): CGM after 2 weeks, n = 5 per group, P = 0.84; for standard deviation from the mean glucose, median (minimum–maximum): CGM, P = 0.22
Protocol: Methods: It is a pilot study with ten patients during six weeks, randomized, prospective, controlled and open label trial. Inclusion criteria: T2DM, age over 60 years, A1C from 7 to 10%, use of NPH insulin with or without oral antidiabetic drugs. […] They were evaluated for glucose variability (GV) and HYPOs by continuous glucose monitoring (CGM) after 2 weeks of treatment with either insulin.

[15] = test system: T1D patients < 18 years; assay: Real-world clinical follow-up of T1D patients < 18 years switched to insulin degludec; format: in vivo, human; details: n = 9
Source text: Information about HbA1c, insulin dose, weight and frequency of hypoglycaemia (self-reported by patients/parents) were collected in every consultant.

[16] = test system: inpatient population with diabetes; assay: Degludeca vs NPH, both with Regular Insulin, in hospital (8 patients per group); details: human, in vivo
Protocol: Methods: We conducted a retrospective, randomized study to compare the efficacy and safety of different basal insulin (Degludeca versus NPH), both on Basal-bolus insulin regimen on inpatient population with diabetes. Data were collected from the medical records, between May, 2016 until April, 2017. 8 patients were selected and randomized in each group. We established optimal glycemic control for patients with capillary glucose below 140 mg/dl in fasting and before main meals and below 180 mg/dL for 2 h after main meals. The criteria for excellent glycemic control was to achieve at least 70% within the previously established target and for acceptable glycemic control, those patients who had between 60% and 69% of the glycemia within the established target. The total number of hypoglycemia was assessed and classified as severe hypoglycemia (< 40 mg/dl) and mild hypoglycemia (< 70 mg/dl) as well as nocturnal hypoglycemia. In addition, the time required to achieve excellent or acceptable glycemic control was also analyzed.

[17] = test system: patient with DRIASM; assay: Insulin degludec in DRIASM, case report; format: in vivo, human
Source text: Discussion: DRIASM is a rare syndrome, characterized by extreme resistance to SC and IM insulin, whose pathophysiology remains unknown. There are few treatments available and most are ineffective. The use of intraperitoneal insulin pump is the therapy with the best result so far, but it is not available in Brazil. Another possibility is the PTA, initially proposed by our group and then performed in other countries. […] After SC injection, the di-hexamers form a stable depot of multi-hexamer chains, with gradual dissociation of these chains into absorbed monomers.

[18] = test system: patients with T2DM uncontrolled on oral antidiabetic agents; assay: LixiLan-O, time to glycemic control (Kaplan–Meier), post hoc; format: in vivo, human; details: LL-O
Protocol: The Kaplan–Meier method was used to estimate time to control, defined as time (days) to first achieve HbA1c < 7% or FPG ≤ 130 mg/dL. […] In addition to lowering FPG via iGlar, iGlarLixi lowers PPG, likely contributing to its greater efficacy in achieving glycemic control vs. iGlar alone. […] Study codes: NCT02058160 and NCT02058147. This is an ENCORE abstract previously presented at ADA 2017. Funding and editorial support provided by Sanofi (Fig. 1)

[19] = test system: subjects with T2D inadequately controlled on IGlarU100 and metformin; assay: DUAL V 26-week open-label treat-to-target trial; format: in vivo, human

C=CC[C@@H]1/C=C(\C)C[C@H](C)C[C@H](OC)[C@H]2O[C@@](O)(C(=O)C(=O)N3CCCC[C@H]3C(=O)O[C@H](/C(C)=C/[C@@H]3CC[C@@H](O)[C@H](OC)C3)[C@H](C)[C@@H](O)CC1=O)[C@H](C)C[C@@H]2OC [Tacrolimus]
independent risk factor for PTDM, OR [1]: 6.3
prevalence of congenital malformations [2]: 4-5%

C[C@@H]1[C@H](O)[C@@H](C)/C=C/C=C/C=C/C=C/C=C/C=C/C=C/[C@H](O[C@@H]2O[C@H](C)[C@@H](O)[C@H](N)[C@@H]2O)C[C@@H]2O[C@](O)(C[C@@H](O)C[C@@H](O)[C@H](O)CC[C@@H](O)C[C@@H](O)CC(=O)O[C@H]1C)C[C@H](O)[C@H]2C(=O)O [amphotericin B]
clinical response [3]: favorable response

CC(C)OC(=O)C(C)(C)Oc1ccc(C(=O)c2ccc(Cl)cc2)cc1 [fenofibrate]
primary outcomes reduced compared to placebo [4]: about 30%

COc1ccc(Cl)cc1C(=O)NCCc1ccc(S(=O)(=O)NC(=O)NC2CCCCC2)cc1 [glibenclamide]
clinical evolution [5]: good glycemic control and improved neurological symptoms

N=C(N)c1ccc(OCCCCCOc2ccc(C(=N)N)cc2)cc1 [pentamidine]
hyperglycemia reported, cases [6]: 1-5%
glycated hemoglobin ([7]; in vivo): 10.31%
serum osmolarity ([7]; non-ketosis hyperosmolar state): 306 mOsm/L
serum glycemia ([7]; pentamidine every 30 days from January 2017, July 2017): 901 mg/dL

Nivolumab
capillary glycemia ([8]; after 4 infusions, every 15 days): 600 mg/dL
C-peptide ([8]; in vivo): 0.34 ng/dL
possible adverse event ([8]; in vivo): New-onset diabetes presenting with Diabetic Ketoacidosis and low levels of Cpeptide
presentation after the third cycle [9]: hyperglycemia, polyuria and polydipsia

insulin degludec [IDeg]
A1C reduction over 24 weeks [10]: 0.98%
blood glucose level ([11]; after the first 24 h of Degludeca with RI): 232.6 ± 74.7 mg/dL
glycemia ([11]; first 24 h of Degludeca 9.3 IU/kg/day with RI 18.2 U/kg/day): 180 ± 42 mg/dL
hospitalizations due to DKA [12]: reduction of hospitalizations
fasting glycemia (GJ) [13]: 171 mg/dL
HbA1c ([13]; […] before): 8.2%
24-h mean glucose, median (minimum–maximum) [14]: 168 (151–206) mg/dL
standard deviation from the mean glucose, median (minimum–maximum) [14]: 69 (42– 83)
Median HbA1c at 6 months after switch [15]: 7.52%
Median HbA1c before switch ([15]; on previous basal insulin or CSII): 8.17%
time to achieve excellent glycemic control, average [16]: 4 days
treatment of DRIASM ([17]; case report, extreme resistance to SC and IM insulin): effective in the treatment of DRIASM, with reduction in hospital admissions and DKA episodes
absorption and plasma glucose in test ([17]; differently from all previously basal insulins): able to be absorbed and to reduce plasma glucose

insulin glargine [Gla-100]
24-h mean glucose, median (minimum–maximum) [14]: 169 (138–193) mg/dL
standard deviation from the mean glucose, median (minimum–maximum) [14]: 45 (41–66)
Days to first HbA1c <7%, median [18]: 166.0 days
mean fasting SMBG after 26 weeks ([19]; NS): 5.6 mmol/L
Mean HbA1c after 26 weeks of treatment ([19]; in vivo): 7.1%
Mean HbA1c, baseline ([19]; in vivo): 8.2%
